According to patent publication US12613179B2, “Label-free electrical monitoring of cell aggregates” (NANYANG TECHNOLOGICAL UNIVERSITY, priority 2020, dated 2026):

Tested on: cell aggregates modelling cancer tumoroids
Experiment: drug susceptibility testing of cell aggregates by EIS-based electrical signatures and optical microscopy
Description: In another set of experiments, the method of the present disclosure is shown to be useful in the continuous monitoring of the physiological and/or morphological changes of cell aggregates in drug susceptibility testing. Paclitaxel (PTX), a common anti-cancer drug for several types of cancers, was provided at different concentrations ranging from 0 nM (nanoMole) to 500 nM to cultures of cell aggregates modelling cancer tumoroids and observed over a period of 24 hours. […] Based on optical microscopy, it can be appreciated that there are hardly any distinguishable differences between the cell aggregate image at 100 nM of PTX and the cell aggregate images at 200 nM PTX or 500 nM PTX. […] Conventionally, it would have required testing the extracellular environment for metabolites to determine such a change. In contrast, by considering the two EIS-based electrical signatures of electrical size and opacity, more information on the effect of drug treatment can be determined. […] The two EIS-based electrical signatures together are able to indicate that the physiological state of the cells undergo substantive changes only after the drug concentration is raised to 500 nM. This is consistent with what is known of the drug treatment modelled in these experiments, and validates the usefulness of the EIS-based electrical signatures in monitoring physiological and/or morphological changes in 3D cell aggregates.

## CC(=O)O[C@H]1C(=O)[C@@]2(C)[C@H]([C@H](OC(=O)c3ccccc3)[C@]3(O)C[C@H](OC(=O)[C@H](O)[C@@H](NC(=O)c4ccccc4)c4ccccc4)C(C)=C1C3(C)C)[C@]1(OC(C)=O)CO[C@@H]1C[C@@H]2O [Paclitaxel]
100 nM PTX, 24 hours, FIG. 17A
  optical size of the cell aggregate (optical microscopy): started to decrease
500 nM PTX, observed over 24 hours, FIG. 17B, 0 nM control 300±41.8 μm
  electrical size of the cell aggregates: 281±40.3 μm
Drug concentration increased from 0 nM to 500 nM, 24 hours, FIG. 17C
  opacity of the cell aggregates: remains relatively unchanged
